In US7601743B2, “Cyano anthranilamide insecticides” (Syngenta Crop Protection, Inc., priority 2005, dated 2009):

Experiments:
Format in all cases: in vivo
Diabrotica balteata = experiment: Activity against Diabrotica balteata (sprayed maize seedlings); details: 144 h, 400 ppm spray on maize seedlings, 2nd instar larvae, 6 days, read-out: percentage reduction in the population (% activity)
Procedure: Maize seedlings are sprayed with an aqueous emulsion spray mixture comprising 400 ppm of active ingredient and, after the spray coating has dried on, populated with 10 larvae (2nd instar) of Diabrotica balteata and introduced into a plastic container. 6 days later, the percentage reduction in the population (% activity) is determined by comparing the number of dead larvae between the treated and untreated plants.

Heliothis virescens = experiment: Activity against Heliothis virescens (foliar application); details: 144 h, 400 ppm spray on young soya plants, 1st instar, 6 days, read-out: percentage reduction in the population and in the feeding damage (% activity)
Procedure: (§1) Young soya plants are sprayed with an aqueous emulsion spray mixture comprising 400 ppm of active ingredient and, after the spray coating has dried on, populated with 10 caterpillars (1st instar) of Heliothis virescens and introduced into a plastic container. 6 days later, the percentage reduction in the population and in the feeding damage (% activity) are determined by comparing the number of dead caterpillars and the feeding damage between the treated and untreated plants.

Plutella xylostella = experiment: Activity against Plutella xylostella; details: 72 h, 400 ppm spray on young cabbage plants, 3rd instar, 3 days, read-out: percentage reduction in the population and in the feeding damage (% activity)
Procedure: as §1, with “cabbage” for “soya”, “(3rd” for “(1st”, “Plutella xylostella” for “Heliothis virescens”, “3” for “6”

Spodoptera littoralis = experiment: Activity against Spodoptera littoralis (sprayed soya plants); details: 72 h, 400 ppm spray on young soya plants, 1st instar, 3 days, read-out: percentage reduction in the population and in the feeding damage (% activity)
Procedure: as §1, with “Spodoptera littoralis” for “Heliothis virescens”, “3” for “6”

Measured: inhibition at 400 ppm

Cc1cc(C#N)cc(C(=O)NC2(C3CC3)CC2)c1NC(=O)c1cc(C(F)(F)F)nn1-c1ncccc1Cl [A.1.1, 2-(3-Chloro-pyridin-2-yl)-5-trifluoromethyl-2H-pyrazole-3-carboxylic acid [2-(bicyclopropyl-1-ylcarbamoyl)-4-cyano-6-methyl-phenyl]-amide]
> 80%: all assays above
